Assay results from patent US20120309717A1, “COMPOUNDS, METHODS AND PHARMACEUTICAL COMPOSITIONS FOR INHIBITING PARP” (EISAI INC., priority 2003, published 2012).

Key:
[1] = target: T1, purified recombinant human PARP (Homo sapiens, UniProt P09874); assay: PARP enzyme assay (IC50); format: biochemical; settings: approximate values
T1 construct: purchased Trevigan (Gaithersburg, Md.)
Experimental: A convenient method to determine IC50 of a PARP inhibitor compound is a PARP assay using purified recombinant human PARP from Trevigan (Gaithersburg, Md.), as follows: The PARP enzyme assay is set up on ice in a volume of 100 microliters consisting of 100 mM Tris-HCl (pH 8.0), 1 mM MgCl2, 28 mM KCl, 28 mM NaCl, 0.1 mg/ml of DNase I activated herring sperm DNA (Sigma, Mo.), 3.0 micromolar [3H]nicotinamide adenine dinucleotide (470 mci/mmole), 7 micrograms/ml PARP enzyme, and various concentrations of the compounds to be tested. The reaction is initiated by incubating the mixture at 25° C. After 15 minutes of incubation, the reaction is terminated by adding 500 microliters of ice cold 20% (w/v) trichloroacetic acid. The precipitate formed is transferred onto a glass fiber filter (Packard Unifilter-GF/B) and washed three times with ethanol. After the filter is dried, the radioactivity is determined by scintillation counting.

P388D1 cells = assay: H2O2 induced cell death assay (cytoprotective effect, LDH release); format: cell-based, murine; settings: Mus musculus, approximate values, concentration for 50% reduction of cell death, 2 mM H2O2, 4 h
Experimental: We used a H2O2 induced cell death assay to determine the cytoprotective effect of PARP inhibitors. P388D1 cells (CCL-46, ATCC), derived from a murine macrophage-like tumor, were maintained in Dulbeco's Modified Eagle Medium (DMEM) with 10% horse serum and 2 mM L-glutamine. The cytotoxicity assay was set up in a 96-well plate. In each well, 190 ul cells were seeded at 2×10^6/ml density. To determine the EC50, the concentration of a compound required to achieve 50% reduction of cell death, a dose response experiment was conducted. PARP inhibitors were added to the media to a final concentration of 0.01, 0.03, 0.1, 0.3, 1, 3, 10, 30 uM. After 15 min incubation with a PARP inhibitor, 5 ul of freshly prepared H2O2 were added to the cells to a final concentration of 2 mM. Cells were returned to 37° C. incubator for 4 h. At the end of incubation, 25 ul of supernatant were sampled from the cell media to determine the level of lactate dehydrogenase (LDH) released from dead cells. The LDH activity was determined by monitoring the rate of decrease of NADH absorbency at 340 nm. The group without drug treatment was used to calculate total cell death due to H2O2 treatment. Each data point was an average of quadruplicate. The EC50 was determined from a dose response curve.

[2] = system: ischemia and reperfusion of the heart; settings: cited from earlier work
colitis = settings: rats; cited from earlier work
[3] = system: human fibroblast cells lines (W138 or BJ cells); assay: proliferative capacity and lifespan of human fibroblast cells; format: cell-based
Experimental: At the time of subdivision, the media is aspirated, and the cells rinsed with phosphate buffer saline (PBS) and then trypsinized. The cells are counted with a Coulter counter and plated at a density of 10^5 cells per cm^2 in 6-well tissue culture plates in DMEM/199 medium supplemented with 10% bovine calf serum and varying amounts (0.10 μM, and 1 mM: from a 100× stock solution in DMEM/M199 medium) of a PARP inhibitor. This process is repeated every 7 days until the cells appear to stop dividing. The untreated (control) cells reach senescence and stop dividing after about 40 days in culture. […] The cells treated with 1 mM 3-AB will still divide after 60 days in culture.

endotoxic shock = settings: cited from earlier work

T1 sequence (P09874 whole entry): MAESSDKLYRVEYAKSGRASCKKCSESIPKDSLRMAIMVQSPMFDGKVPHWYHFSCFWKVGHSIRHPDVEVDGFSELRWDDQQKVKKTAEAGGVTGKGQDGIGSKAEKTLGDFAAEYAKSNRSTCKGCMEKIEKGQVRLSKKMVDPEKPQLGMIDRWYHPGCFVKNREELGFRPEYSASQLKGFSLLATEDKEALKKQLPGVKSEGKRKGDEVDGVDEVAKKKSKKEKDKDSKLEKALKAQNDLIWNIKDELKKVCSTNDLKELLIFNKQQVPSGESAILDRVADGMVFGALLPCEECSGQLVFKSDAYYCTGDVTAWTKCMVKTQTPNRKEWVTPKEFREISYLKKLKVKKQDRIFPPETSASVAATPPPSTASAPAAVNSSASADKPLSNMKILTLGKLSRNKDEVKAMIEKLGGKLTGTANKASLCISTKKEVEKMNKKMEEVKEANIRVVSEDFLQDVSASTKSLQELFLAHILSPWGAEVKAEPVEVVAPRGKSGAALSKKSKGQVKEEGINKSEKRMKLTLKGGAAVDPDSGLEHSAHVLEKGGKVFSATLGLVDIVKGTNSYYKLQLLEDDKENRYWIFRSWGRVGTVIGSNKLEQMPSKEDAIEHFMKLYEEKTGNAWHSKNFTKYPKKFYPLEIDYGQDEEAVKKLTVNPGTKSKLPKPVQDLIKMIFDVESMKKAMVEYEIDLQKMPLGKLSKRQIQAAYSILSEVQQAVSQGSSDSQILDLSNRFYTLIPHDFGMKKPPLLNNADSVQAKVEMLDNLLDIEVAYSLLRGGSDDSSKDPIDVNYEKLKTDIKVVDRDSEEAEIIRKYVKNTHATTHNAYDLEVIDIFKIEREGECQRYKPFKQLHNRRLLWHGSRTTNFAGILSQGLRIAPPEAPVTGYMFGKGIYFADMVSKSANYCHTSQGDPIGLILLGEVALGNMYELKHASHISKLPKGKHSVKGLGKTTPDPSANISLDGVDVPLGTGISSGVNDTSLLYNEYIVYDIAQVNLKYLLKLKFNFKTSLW

Row | SMILES | IC50 ([1]; Table I) [nM] | IC50 ([1]; Table II) [nM] | EC50 (P388D1 cells; Table II) [nM] | also measured
1 | NNC(=O)C1=CNc2c(Cl)ccc3c(=O)[nH]nc1c23 | 749 |  |  | 
2 | O=c1[nH]nc2c3c(cccc13)NC=N2 | 39 |  |  | EC50 (P388D1 cells; Table I): 350 nM
3 | NNC(=O)C1=CNc2cccc3c(=O)[nH]nc1c23 | 14 |  |  | EC50 (P388D1 cells; Table I): 100 nM
4 | NNC(=O)C1=Cc2n[nH]c(=O)c3ccc(NN)c(c23)N1 | 2790 |  |  | 
5 | NNC(=O)C1=Cc2n[nH]c(=O)c3cccc(c23)N1 | 26 |  |  | EC50 (P388D1 cells; Table I): 510 nM
6 | O=C(O)C1=Cc2n[nH]c(=O)c3cccc(c23)N1 | 160 |  |  | EC50 (P388D1 cells; Table I): 1700 nM
7 | NC1=Nc2n[nH]c(=O)c3cccc(c23)N1 | 91 |  |  | EC50 (P388D1 cells; Table I): 640 nM
8 | NNC(=O)C1=Nc2n[nH]c(=O)c3cccc(c23)N1 | 21 |  |  | EC50 (P388D1 cells; Table I): 240 nM
9 | CC1=Cc2n[nH]c(=O)c3ccc(Cl)c(c23)N1 | 120 |  |  | 
10 | O=c1[nH]nc2c3c(cccc13)NC(CO)=N2 | 26 |  |  | EC50 (P388D1 cells; Table I): 360 nM
11 | O=c1[nH]nc2c3c(cccc13)NC(CNCCCc1ccccc1)=N2 | 87 |  |  | EC50 (P388D1 cells; Table I): 10 nM
12 | CN(C)CC1=Nc2n[nH]c(=O)c3cccc(c23)N1 | 19 |  |  | EC50 (P388D1 cells; Table I): 130 nM
13 | O=c1[nH]nc2c3c(cccc13)NC(CN1CCCCC1)=N2 | 19 |  |  | EC50 (P388D1 cells; Table I): 120 nM
14 | O=c1[nH]nc2c3c(cccc13)NC(CN1CCCC1)=N2 | 18 |  |  | 
15 | O=c1[nH]nc2c3c(cccc13)N=C(CN1CCOCC1)N2 | 18 |  |  | 
16 | CCOP(=O)(NCc1ccc2c(c1)-c1n[nH]c(=O)c3cccc(c13)O2)OCC |  | 275 |  | 
17 | CN(C)c1ccc(/N=N/c2ccc(S(=O)(=O)NCc3ccc4c(c3)-c3n[nH]c(=O)c5cccc(c35)O4)cc2)cc1 |  | 1300 |  | 
18 | Oc1cccc2c(O)nccc12 [1,5-dihydroxyisoquinoline] |  |  |  | reduction in infarct size ([2]; 1 mg/kg): 38-48%
19 | NC(=O)c1cccc(N)c1 [3-amino-benzamide] |  |  |  | inflammatory response, distal colon (colitis): reduced the inflammatory response; effect on lifespan of the cells ([3]; 10 μM): little or no effect; effect on lifespan of the cells ([3]; 100 μM): lengthen the lifespan of the cells; effect on lifespan and proliferative capacity of the cells ([3]; 1 mM): dramatically increases the lifespan and proliferative capacity; time in culture at which cells still divide ([3]; 1 mM, untreated cells stop after about 40 days): > 60 days; reduction in infarct size in the heart ([2]; single injection 10 mg/kg, one minute before occlusion or before reperfusion): 32-42%
20 | O=c1[nH]nc2c3c(cccc13)Oc1ccc(CN(CCO)CCO)cc1-2 [Compound 47, 10-{[Bis-(2-hydroxy-ethyl)-amino]-methyl}-2H-7-oxa-1,2-diaza-benzo[de]anthracen-3-one] |  |  |  | melting point: 222 to 225 °C
21 | O=c1[nH]nc2c3c(cccc13)Oc1ccc(CN3CCC(N4CCCC4)CC3)cc1-2 [Compound 48, 10-(4-Pyrrolidin-1-yl-piperidin-1-ylmethyl)-2H-7-oxa-1,2-diaza-benzo[de]anthracen-3-one] |  |  |  | melting point: 258 to 264 °C
22 | O=C(O)C(O)C(O)C(=O)NCc1ccc2c(c1)-c1n[nH]c(=O)c3cccc(c13)O2 (centres unmarked) [Compound 52, 2,3-Dihydroxy-N-(3-oxo-2,3-dihydro-7-oxa-1,2-diaza-benzo[de]anthracen-10-ylmethyl)-succinamic acid] |  |  |  | melting point: 181 to 185 °C
23 | CN(C)c1ccc(N=Nc2ccc(S(=O)(=O)NCc3ccc4c(c3)-c3n[nH]c(=O)c5cccc(c35)O4)cc2)cc1 [Compound 55, 4-(4-Dimethylamino-phenylazo)-N-(3-oxo-2,3-dihydro-7-oxa-1,2-diaza-benzo[de]anthracen-10-ylmethyl)-benzenesulfonamide] |  |  |  | melting point: > 300 °C
24 | CN(C)CC(=O)OCc1ccc2c(c1)-c1n[nH]c(=O)c3cccc(c13)O2 [Compound 59, Dimethylamino-acetic acid 3-oxo-2,3-dihydro-7-oxa-1,2-diaza-benzo[de]anthracen-10-ylmethyl ester] |  |  |  | melting point: 227 to 230 °C
25 | O=c1[nH]nc2c3c(cccc13)Oc1ccc(COP(=O)(OCc3ccccc3)OCc3ccccc3)cc1-2 [Compound 60, Phosphoric acid dibenzyl ester 3-oxo-2,3-dihydro-7-oxa-1,2-diaza-benzo[de]anthracen-10-ylmethyl ester] |  |  |  | melting point: 223 to 225 °C
26 | O=c1[nH]nc2c3c(cccc13)Oc1ccc(CN3CCC(N4CCCC4)CC3)cc1-2 [drawing 63] |  |  | 300 | 
27 | NC(=O)c1cccnc1 [nicotinamide] |  |  |  | protection against vascular failure (endotoxic shock): protects against delayed, NO-mediated vascular failure

Further lines, with some results ahead:

Row | IC50 ([1]; Table I) [nM] | IC50 ([1]; Table II) [nM] | SMILES | EC50 (P388D1 cells; Table II) [nM] | also measured
28 |  | 35 | CC(=O)OC(C(=O)O)C(OC(C)=O)C(=O)NCc1ccc2c(c1)-c1n[nH]c(=O)c3cccc(c13)O2 (centres unmarked) | 2080 | 
29 |  | 19 | NCc1ccc2c(c1)-c1n[nH]c(=O)c3cccc(c13)O2 | 2080 | 
30 |  | 67 | O=c1[nH]nc2c3c(cccc13)Oc1ccc(CN3CCOCC3)cc1-2 | 300 | 
31 |  | 30 | O=C(NCc1ccc2c(c1)-c1n[nH]c(=O)c3cccc(c13)O2)C1CCCN1 (centres unmarked) | 80 | 
32 |  | 35 | N=C(N)NCc1ccc2c(c1)-c1n[nH]c(=O)c3cccc(c13)O2 | 1000 | 
33 |  | 60 | CCN1CCN(Cc2ccc3c(c2)-c2n[nH]c(=O)c4cccc(c24)O3)CC1 | 120 | 
34 |  | 101 | O=c1[nH]nc2c3c(cccc13)Oc1ccc(CN3CCN(CCO)CC3)cc1-2 | 80 | 
35 |  | 128 | O=c1[nH]nc2c3c(cccc13)Oc1ccc(CN3CCN(CCOCCO)CC3)cc1-2 | 75 | 
36 |  | 165 | NOCc1ccc2c(c1)-c1n[nH]c(=O)c3cccc(c13)O2 | 470 | 
37 |  | 92 | O=c1[nH]nc2c3c(cccc13)Oc1ccc(CO)cc1-2 | 410 | 
38 |  | 413 | O=C(CCP(=O)(OCc1ccccc1)OCc1ccccc1)OCc1ccc2c(c1)-c1n[nH]c(=O)c3cccc(c13)O2 |  | 
39 |  | 177 | O=C(CCl)OCc1ccc2c(c1)-c1n[nH]c(=O)c3cccc(c13)O2 |  | 
40 |  | 167 | O=C(O)c1ccc2c(c1)-c1n[nH]c(=O)c3cccc(c13)O2 |  | 
41 |  | 34 | O=c1[nH]nc2c3c(cccc13)Oc1ccc(COP(=O)(O)O)cc1-2 | 750 | 
42 |  | 89 | C=COC(=O)c1ccc2c(c1)-c1n[nH]c(=O)c3cccc(c13)O2 |  | 
43 |  | 48 | O=c1[nH]nc2c3c(cccc13)Oc1ccc(CN3CCNCC3)cc1-2 | 270 | 
44 |  | 100 | CN(C)CCN(C)Cc1ccc2c(c1)-c1n[nH]c(=O)c3cccc(c13)O2 [10-{[(2-Dimethylamino-ethyl)-methyl-amino]-methyl}-2H-7-oxa-1,2-diaza-benzo[de]anthracen-3-one] | 170 | 
45 |  | 21 | O=C(O)C(O)C(O)C(=O)NCc1ccc2c(c1)-c1n[nH]c(=O)c3cccc(c13)O2 (centres unmarked) [drawing 41] | 5270 | 
46 |  | 74 | CN1CCN(Cc2ccc3c(c2)-c2n[nH]c(=O)c4cccc(c24)O3)CC1 [drawing 46] | 130 | 
47 |  | 38 | O=c1[nH]nc2c3c(cccc13)Oc1ccc(CN(CCO)CCO)cc1-2 [drawing 52] |  | 
48 |  | 125 | CN(C)CC(=O)OCc1ccc2c(c1)-c1n[nH]c(=O)c3cccc(c13)O2 [drawing 54] |  | 
49 |  | 86 | O=c1[nH]nc2c3c(cccc13)Oc1ccc(COP(=O)(OCc3ccccc3)OCc3ccccc3)cc1-2 [drawing 55] | 520 | 
